Patent US20230346717A1, “IDENTIFICATION AND USE OF COMPOUNDS IN THE TREATMENT OR PREVENTION OF SEVERE ACUTE RESPIRATORY SYNDROME CORONAVIRUS 2” (priority 2020, published 2023)
Counter-ions that a name gives are not always drawn. Like-named read-outs stand apart in the source and are kept apart here.

Key:
Type in all cases: cell-based, human
GALC = assay: Gene expression assay, lysosome gene GALC; settings: probe 204417_at; ARPE-19/HPV-16, 10 μM, 24 h
From the text: (§1) A drug screen was used to test agents having the potential to treat or prevent SARS-CoV-2 infection. The retinal pigment epithelia cell line, ARPE-19/HPV-16, was chosen to establish a database of drug profiles because of its non-cancerous, human origin, with a normal karyotype. ARPE-19/HPV-16 can be easily grown as monolayer in 96-well plates and expresses a variety of well known, neuronal, cell surface receptors that include the dopamine receptor D2, the serotonin receptors 1A, 2A, and 2C, the muscarinic receptor M3, and the histamine receptor H1.
(§2) Cell lines were propagated according to supplier's specifications (ATCC Manassas, VA). Compounds were obtained from Sigma (St. Louis, MO) or Vanda Pharmaceuticals (Washington, DC). Cells were aliquoted on 96-well plates (˜2×10^5 cells/well) and incubated for 24 hours prior to providing fresh media with a drug, or the drug vehicle (water, dimethyl sulfoxide, ethanol, methanol, or phosphate-buffered saline solution). Drugs were diluted 1000-fold in buffered Advanced D-MEM/F-12 culture medium (Invitrogen, Carlsbad, CA) containing nonessential amino acids and 110 mg/L sodium pyruvate. […]
(§3) Cells were harvested 24 hours after treatment and RNA was extracted using the RNeasy 96 protocol (Qiagen, Valencia, CA). […] A total of 708 microarrays were analyzed including 74 for 18 antipsychotics, 499 for 448 other compounds, and 135 for vehicle controls. […]

CD164 = assay: Gene expression assay, lysosome gene CD164; settings: probe 208654_s_at; ARPE-19/HPV-16, 10 μM, 24 h
From the text: as §1, §2, §3

[1] = test system: steroid sulfatase (microsomal); assay: Gene expression assay, lysosome gene steroid sulfatase (microsomal); settings: probe 203767_s_at; ARPE-19/HPV-16, 10 μM, 24 h
From the text: as §1, §2, §3

RAB38 = assay: Gene expression assay, lysosome gene RAB38; settings: probe 219412_at; ARPE-19/HPV-16, 10 μM, 24 h
From the text: as §1, §2, §3

GJA1 = assay: Gene expression assay, lysosome gene GJA1; settings: probe 201667_at; ARPE-19/HPV-16, 10 μM, 24 h
From the text: as §1, §2, §3

CTSL = settings: ARPE-19/HPV-16 cells, 10 μM drug, 24 hours
From the text: Each drug group profile was created using a novel Weighted Influence Model, Rank of Ranks (WIMRR) method which underscores the rank of each probe set across the entire gene expression profile rather than the specific change in expression level. WIMRR takes the average rank of each probe set across all of the members of the group and then re-ranks the probe sets from smallest average rank to largest average rank. A gene-set enrichment metric based on the Kolmogorov-Smirnov (KS) statistic.
Applicant analyzed expression profile of CTSL across all 466 drugs tested. In order to find positive hits and selected only those results that caused decrease of CTSL expression by at least 33% (1.5-fold down).

CTBS = assay: Gene expression assay, lysosome gene CTBS; settings: probe 218924_s_at; ARPE-19/HPV-16, 10 μM, 24 h
From the text: as §1, §2, §3

AGA = settings: ARPE-19/HPV-16, 10 μM, 24 h
lysosome pathway genes = assay: Enrichment analysis of genes downregulated by amantadine (top 500 differentially expressed probes); settings: ARPE-19/HPV-16, 10 μM, 24 h
From the text: as §1, §2, §3

ceroid-lipofuscinosis = assay: Gene expression assay, lysosome gene ceroid-lipofuscinosis; settings: ARPE-19/HPV-16, 10 μM, 24 h
From the text: as §1
(§4) Cell lines were propagated according to supplier's specifications (ATCC Manassas, VA). Compounds were obtained from Sigma (St. Louis, MO) or Vanda Pharmaceuticals (Washington, DC). Cells were aliquoted on 96-well plates (˜2×10^5 cells/well) and incubated for 24 hours prior to providing fresh media with a drug, or the drug vehicle (water, dimethyl sulfoxide, ethanol, methanol, or phosphate-buffered saline solution). Drugs were diluted 1000-fold in buffered Advanced D-MEM/F-12 culture medium (Invitrogen, Carlsbad, CA) containing nonessential amino acids and 110 mg/L sodium pyruvate. In these conditions, no significant changes of pH were expected, which was confirmed by the monitoring of the pH indicator present in the medium.
(§5) A final 10 μM drug concentration was chosen because it is believed to fit in the range of physiological relevance. Microscopic inspection of each well was conducted at the end of the treatment to discard any samples where cells had morphological changes consistent with apoptosis. It was also verified that the drug had not precipitated in the culture medium.
(§6) Cells were harvested 24 hours after treatment and RNA was extracted using the RNeasy 96 protocol (Qiagen, Valencia, CA). Gene expression for 22,238 probe sets of 12,490 genes was generated with U133A2.0 microarrays following the manufacturer's instructions (Affymetrix, Santa Clara, CA). Drugs were profiled in duplicate or triplicate, with multiple vehicle controls on each plate. A total of 708 microarrays were analyzed including 74 for 18 antipsychotics, 499 for 448 other compounds, and 135 for vehicle controls.
(§7) The raw scan data were first converted to average difference values using MAS 5.0 (Affymetrix). The average difference values of both treatment and control data were set to a minimum threshold of 50 if below 50. For each treatment instance, all probe sets were then ranked based on their amplitude, or level of expression relative to the vehicle control (or average of controls when more than one was used). Amplitude was defined as the ratio of expression (t−v)/[(t+v)/2] where t corresponds to treatment instance and v to vehicle instance. […]

CPQ = assay: Gene expression assay, lysosome gene CPQ; settings: ARPE-19/HPV-16, 10 μM, 24 h
From the text: as §1, §4, §5, §6, §7

N-acetyl-6-sulfatase = assay: Gene expression assay, lysosome gene N-acetyl-6-sulfatase; settings: probe 212334_at; ARPE-19/HPV-16, 10 μM, 24 h
From the text: as §1, §2, §3

CTSB = assay: Gene expression assay, lysosome gene CTSB; settings: probe 213274_s_at; ARPE-19/HPV-16, 10 μM, 24 h
From the text: as §1, §2, §3

SCARB2 = assay: Gene expression assay, lysosome gene SCARB2; settings: probe 201647_s_at; ARPE-19/HPV-16, 10 μM, 24 h
From the text: as §1, §2, §3

PCYOX1 = assay: Gene expression assay, lysosome gene PCYOX1; settings: probe 203803_at; ARPE-19/HPV-16, 10 μM, 24 h
From the text: as §1, §2, §3

LAMP1 = assay: Gene expression assay, lysosome gene LAMP1; settings: probe 201551_s_at; ARPE-19/HPV-16, 10 μM, 24 h
From the text: as §1, §2, §3

BCL10 = assay: Gene expression assay, lysosome gene BCL10; settings: probe 205263_at; ARPE-19/HPV-16, 10 μM, 24 h
From the text: as §1, §2, §3

NC12CC3CC(CC(C3)C1)C2 [Amantadine Hydrochloride]
avg_tx (log2) GALC (GALC): 6.58 log2
diff (log2) GALC (GALC): −2.06 log2
avg_tx (log2) CD164 (CD164): 8.7 log2
diff (log2) CD164 (CD164): −1.34 log2
avg_tx (log2) steroid sulfatase (microsomal) [1]: 5.55 log2
diff (log2) steroid sulfatase (microsomal) [1]: −1.47 log2
avg_tx (log2) RAB38 (RAB38): 6.51 log2
diff (log2) RAB38 (RAB38): −1.3 log2
avg_tx (log2) GJA1 (GJA1): 11.23 log2
diff (log2) GJA1 (GJA1): −1.76 log2
log2(treated) CTSL (CTSL): 9.62 log2
log2 difference (CTSL, treated vs control) (CTSL): −0.70 log2
avg_tx (log2) CTBS (CTBS): 6.59 log2
diff (log2) CTBS (CTBS): −1.32 log2
avg_tx (log2) AGA (AGA; probe 204332_s_at): 9.18 log2
diff (log2) AGA (AGA; probe 204332_s_at): −1.39 log2
avg_tx (log2) AGA (AGA; probe 204333_s_at): 6.57 log2
diff (log2) AGA (AGA; probe 204333_s_at): −1.6 log2
avg_tx (log2) AGA (AGA; probe 216064_s_at): 8.12 log2
diff (log2) AGA (AGA; probe 216064_s_at): −1.38 log2
expression reduction of the top 500 differentially expressed probes (383 genes) (lysosome pathway genes): at least 50%
avg_tx (log2) ceroid-lipofuscinosis (ceroid-lipofuscinosis; probe 204085_s_at): 5.93 log2
diff (log2) ceroid-lipofuscinosis (ceroid-lipofuscinosis; probe 204085_s_at): −1.74 log2
avg_tx (log2) ceroid-lipofuscinosis (ceroid-lipofuscinosis; probe 214252_s_at): 6.13 log2
diff (log2) ceroid-lipofuscinosis (ceroid-lipofuscinosis; probe 214252_s_at): −1.57 log2
avg_tx (log2) CPQ (CPQ; probe 203501_at): 6.41 log2
diff (log2) CPQ (CPQ; probe 203501_at): −1.55 log2
avg_tx (log2) CPQ (CPQ; probe 208454_s_at): 7.3 log2
diff (log2) CPQ (CPQ; probe 208454_s_at): −1.34 log2
avg_tx (log2) N-acetyl-6-sulfatase (N-acetyl-6-sulfatase): 9.71 log2
diff (log2) N-acetyl-6-sulfatase (N-acetyl-6-sulfatase): −1.27 log2
avg_tx (log2) CTSB (CTSB): 7.75 log2
diff (log2) CTSB (CTSB): −1.48 log2
avg_tx (log2) SCARB2 (SCARB2): 6.97 log2
diff (log2) SCARB2 (SCARB2): −1.63 log2
avg_tx (log2) PCYOX1 (PCYOX1): 7.15 log2
diff (log2) PCYOX1 (PCYOX1): −1.57 log2
avg_tx (log2) LAMP1 (LAMP1): 7.87 log2
diff (log2) LAMP1 (LAMP1): −1.4 log2
avg_tx (log2) BCL10 (BCL10): 7.44 log2
diff (log2) BCL10 (BCL10): −1.25 log2
